Measurements: US20110263454A1, “Methods of Identifying Functional Characteristics of Promoters, Transcription Modifying Proteins and Transcription Modulating Agents” (Salk Institute for Biological Studies, priority 2008, published 2011)

Assays:
[1] = test system: hMyoD promoter; assay: NHR-promoter luciferase screen, hMyoD promoter; assay type: cell-based, human; details: for Luc. act., normalized to lacZ / Normalized Luc. act., normalized to control: MyoD promoter reporter, co-transfected HR, without or with its ligand; for Normalized Luc. act., normalized to control: relative to control; for luciferase activity normalized to lacZ activity and to a control, hMyoD: hMyoD promoter-luciferase, CV-1 cells, NHR +/- ligand, control = 1.00
Procedure: (§1) The use, feasibility, and reproducibility of the functional NHR-promoter screen in a 48-well format have been tested validated. Briefly, there were co-expressed 50 ng of each NHR/NHR homodimer or NHR/RXR heterodimer with 100 ng promoter/luciferase construct and 50 ng of LacZ (as a control for transfection efficiency) in CV-1 cells using Fugene HD (Roche) as a transfection reagent (alternatively or additionally, a CMV-YFP construct can be used as a transfection control). Each of the nuclear hormone receptors that were used in these experiments was cloned into a pcDNA3.1 vector and comprised a C-terminally linked V5H6 tag. Twenty-four hours after transfection, appropriate ligands were added, where applicable, (see Table 5 for various ligands and concentrations and after 48 hrs, samples were assayed for luciferase and LacZ activity. To measure for luciferase activity 15 ul of sample was added to 30 ul of luciferase buffer (20 mM tricine, 1.07 mM MgCarbonate, 2.67 mM MgSulfate, 0.1 mM Naz-EDTA, 5 mM DTT, 5 mM ATP, 0.15 mg/ml CoA, 0.5 mM Luciferin), mixed briefly, and run in a Perkin Elmer Victor 5 luminometer. Thus, the functional NHR-promoter screen was used to observe the transcriptional activity of 29 promoters from various physiological pathways including inflammation, lipid and sugar metabolism, cholesterol transport, xenobiotic metabolism, and circadian rhythm.
(§2) The promoters that facilitate transcription of the indicated gene products that were tested using the protocols described herein are listed in the first row of the table. The nuclear hormone receptors and, where applicable, ligands that were assayed for their transcriptional effects on the promoters are listed in the first column of the table. The data represent the luciferase activity of each sample normalized to both the lacZ activity of that sample and to a control, e.g., no NHR or ligand, as customary in the art. As described previously, these normalizations allow the transcriptional activity of each reporter cell to be compared to other samples.
(§3) Tables 7-40 show the transcriptional effects of the hormone receptors, and, where applicable, ligands (orphan receptors are screened without ligand), on each individual promoter. […] The control data of each table are shown in their last rows.

[2] = test system: mAgrp promoter; assay: NHR-promoter luciferase screen, mAgrp promoter; assay type: cell-based, mouse; details: for Results of assays of transcription factor (+/- ligand) with mAgrp: Table 6d, luciferase activity relative to control (control = 1.00); for luciferase/LacZ, mAgrp (selected results): mAgrp promoter-luciferase, NHR +/- ligand, control = 1.0; for Luc. act., normalized to lacZ / Normalized Luc. act., normalized to control: mAgrp promoter, HR component with or without ligand; for Normalized Luc. act., normalized to control: relative to control
Procedure: as §1, §2, §3

[3] = test system: mPOMC promoter; assay: NHR-promoter luciferase screen, mPOMC promoter; assay type: cell-based, mouse; details: for Results of assays of transcription factor (+/- ligand) with mPOMC: Table 6d, luciferase activity relative to control (control = 1.00); for Luc. act., normalized to lacZ / Normalized Luc. act., normalized to control: mPOMC promoter, HR component with or without ligand; for Normalized Luc. act., normalized to control: relative to control
Procedure: as §1, §2, §3

[4] = test system: hIRF7 promoter; assay: NHR-promoter luciferase screen, hIRF7 promoter; assay type: cell-based, human; details: for Normalized Luc. act., normalized to control / Luc. act., normalized to lacZ: IRF7 promoter reporter; for Normalized Luc. act., normalized to control: HR without or with its ligand, relative to control; for Luc. act., normalized to lacZ: hormone receptor (HR) without or with its ligand; for hIRF7 promoter reporter activity: transcription factor +/- ligand, control = 1.00
Procedure: as §1, §2, §3

[5] = test system: mAdiponectin promoter; assay: NHR-promoter luciferase screen, mAdiponectin promoter; assay type: cell-based, mouse; details: for Luc. act., normalized to lacZ / Normalized Luc. act., normalized to control: Adiponectin, HR component without or with its ligand; for mAdiponectin promoter reporter activity: transcription factor +/- ligand, control = 1.00
Procedure: as §1, §2, §3

Row | Substance | Luc. act., normalized to lacZ [1] | Normalized Luc. act., normalized to control [1] | luciferase activity normalized to lacZ activity and to a control, hMyoD [1] | Results of assays of transcription factor (+/- ligand) with mAgrp [2] | luciferase/LacZ, mAgrp (selected results) [2] | Luc. act., normalized to lacZ [2] | Normalized Luc. act., normalized to control [2] | Results of assays of transcription factor (+/- ligand) with mPOMC [3] | Luc. act., normalized to lacZ [3] | Normalized Luc. act., normalized to control [3] | Normalized Luc. act., normalized to control [4] | Luc. act., normalized to lacZ [4] | hIRF7 promoter reporter activity [4] | Luc. act., normalized to lacZ [5] | Normalized Luc. act., normalized to control [5] | mAdiponectin promoter reporter activity [5]
1 | GR: Glucocorticoid Receptor (NR3C1), cDNA driver | 26.4 | 0.4 | 0.42 | 0.55 | 0.6 | 22.0 | 0.6 | 0.50 | 34.5 | 0.5 | 0.7 | 18.9 | 0.72 | 33.2 | 0.5 | 0.53
2 | NR4a1: NR4a1 (NR4A1; NUR77), nuclear hormone receptor cDNA driver | 152.5 | 2.4 | 2.41 | 1.17 | 1.2 | 46.3 | 1.2 | 3.58 | 246.9 | 3.6 | 2.3 | 61.0 | 2.31 | 85.6 | 1.4 | 1.36
3 | AR: Androsterone Receptor (NR3C4), cDNA driver | 57.5 | 0.9 | 0.91 | 1.15 | – | 45.8 | 1.2 | 1.05 | 72.2 | 1.0 | 1.1 | 29.9 | 1.14 | 82.7 | 1.3 | 1.32
4 | PNR: Photoreceptor-specific Nuclear Receptor (NR2E3), cDNA driver | 37.1 | 0.6 | 0.59 | 0.76 | – | 30.1 | 0.8 | 0.81 | 56.0 | 0.8 | 1.0 | 27.5 | 1.04 | 70.7 | 1.1 | 1.13
5 | TLX: Tailless (homolog of drosophila) (NR2E1), cDNA driver | 31.3 | 0.5 | 0.49 | 0.82 | – | 32.4 | 0.8 | 0.74 | 51.1 | 0.7 | 2.1 | 55.0 | 2.09 | 78.4 | 1.2 | 1.25
6 | SF-1: Steroidogenic Factor 1 (NR5A1, SF1), cDNA driver | 151.2 | 2.4 | 2.39 | 3.58 | – | 141.9 | 3.6 | 8.37 | 577.5 | 8.4 | 2.5 | 65.5 | 2.49 | 35.0 | 0.6 | 0.56
